Key:
[1] = molar heat capacity at constant pressure; xn = mol fraction of the nth substance listed; conditions: 308.15 K, 101 kPa, Liquid, Small sample (50 mg) DSC
[2] = excess molar enthalpy (molar enthalpy of mixing); xn = mol fraction of the nth substance listed; conditions: 308.15 K, 101 kPa, Liquid, Flow calorimetry
[3] = refractive index (Na D-line) (dimensionless); conditions: 101.33 kPa, Liquid, Standard Abbe refractometry
[4] = molar heat capacity at constant pressure; conditions: 101.33 kPa, Liquid, Small sample (50 mg) DSC
[5] = 101.33 kPa, Liquid, Vibrating tube method

C1CCOC1 [tetrahydrofuran] + C[S+](C)[O-]
Conditions	excess molar enthalpy [kcal/mol]	molar heat capacity at constant pressure [J/K/mol]
[1], x2 = 0.0807	–	132.9
[1], x2 = 0.1171	–	133.6
[1], x2 = 0.2353	–	135.9
[1], x2 = 0.3233	–	137.7
[1], x2 = 0.4932	–	141.4
[1], x2 = 0.5284	–	142.3
[1], x2 = 0.5833	–	143.6
[1], x2 = 0.6359	–	144.9
[1], x2 = 0.7298	–	147.2
[1], x2 = 0.8269	–	149.8
[1], x2 = 0.893	–	151.6
[1], x2 = 0.9507	–	153.2
[2], x2 = 0.0457	0.0509	–
[2], x2 = 0.0875	0.0889	–
[2], x2 = 0.1257	0.117	–
[2], x2 = 0.1608	0.138	–
[2], x2 = 0.2233	0.167	–
[2], x2 = 0.2771	0.183	–
[2], x2 = 0.3651	0.204	–
[2], x2 = 0.4339	0.208	–
[2], x2 = 0.5349	0.209	–
[2], x2 = 0.6332	0.201	–
[2], x2 = 0.697	0.185	–
[2], x2 = 0.7753	0.163	–
[2], x2 = 0.8215	0.141	–
[2], x2 = 0.8735	0.113	–
[2], x2 = 0.902	0.0956	–
[2], x2 = 0.9325	0.0696	–
[2], x2 = 0.965	0.039	–

C[S+](C)[O-] [dimethyl sulfoxide]
Conditions	mass density [kg/m3]	molar heat capacity at constant pressure [J/K/mol]	refractive index
[3], 298.15 K	–	–	1.4775
[3], 308.15 K	–	–	1.4729
[4], 293.15 K	–	151.2	–
[4], 298.15 K	–	152.4	–
[4], 303.15 K	–	153.4	–
[4], 308.15 K	–	154.8	–
[4], 313.15 K	–	155.4	–
[4], 318.15 K	–	156.6	–
[4], 323.15 K	–	157.7	–
[4], 328.15 K	–	157.8	–
[4], 333.15 K	–	158.5	–
[4], 338.15 K	–	159.3	–
[4], 343.15 K	–	159.5	–
[4], 348.15 K	–	160.2	–
[4], 353.15 K	–	160.3	–
[4], 358.15 K	–	161.3	–
[4], 363.15 K	–	161.5	–
[4], 368.15 K	–	161.7	–
[4], 373.15 K	–	162.6	–
[4], 378.15 K	–	163.3	–
[4], 383.15 K	–	164.8	–
[4], 388.15 K	–	166.3	–
[4], 393.15 K	–	168.3	–
[4], 398.15 K	–	169.1	–
[4], 403.15 K	–	170.3	–
[4], 408.15 K	–	170.4	–
[4], 413.15 K	–	170.6	–
[4], 418.15 K	–	171.1	–
[4], 423.15 K	–	171.2	–
[5], 298.15 K	1095.58	–	–
[5], 308.15 K	1085.5	–	–

CCOCCOCC [1,2-diethoxyethane]
Conditions	mass density, [5] [kg/m3]	molar heat capacity at constant pressure, [4] [J/K/mol]	refractive index, [3]
288.15 K	–	254.5	–
293.15 K	–	255.3	–
298.15 K	835.11	257.5	1.3897
303.15 K	–	257.9	–
308.15 K	826.026	258.7	1.3853
313.15 K	–	259.5	–
318.15 K	–	261.2	–
323.15 K	–	262.9	–

Reference: the NIST ThermoML archive (doi:10.1016/j.tca.2006.05.010)
